Source: ChEMBL document CHEMBL1641599, “Design of novel N-phenylnicotinamides as selective cyclooxygenase-1 inhibitors” (Bioorg Med Chem Lett, 2011)

target: T1, Prostaglandin G/H synthase 1 (Ovis aries) (UniProt P05979); assay: Inhibition of ovine COX1 at 100 uM after 5 mins by microplate reader assay
T1 sequence (whole entry): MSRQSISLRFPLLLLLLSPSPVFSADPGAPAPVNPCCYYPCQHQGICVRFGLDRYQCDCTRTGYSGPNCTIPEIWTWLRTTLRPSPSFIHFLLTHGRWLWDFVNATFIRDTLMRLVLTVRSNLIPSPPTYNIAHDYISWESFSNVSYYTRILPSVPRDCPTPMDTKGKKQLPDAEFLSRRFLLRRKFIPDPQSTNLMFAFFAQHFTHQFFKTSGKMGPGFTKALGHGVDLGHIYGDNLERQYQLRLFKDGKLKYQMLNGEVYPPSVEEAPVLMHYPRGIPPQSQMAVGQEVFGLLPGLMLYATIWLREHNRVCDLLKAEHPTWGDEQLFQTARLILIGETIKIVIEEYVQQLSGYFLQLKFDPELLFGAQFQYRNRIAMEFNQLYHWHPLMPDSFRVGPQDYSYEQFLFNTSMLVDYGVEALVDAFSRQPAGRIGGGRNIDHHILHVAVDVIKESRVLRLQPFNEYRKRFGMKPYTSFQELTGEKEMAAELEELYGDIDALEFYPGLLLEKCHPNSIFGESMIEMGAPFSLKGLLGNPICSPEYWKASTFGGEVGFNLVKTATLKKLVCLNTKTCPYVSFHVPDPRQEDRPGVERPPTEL

SMILES	inhibition [%]
Cc1ccc(C(=O)Nc2ccc(Cl)cc2Cl)cn1	38
Cc1ccc(C(=O)Nc2ccc(Cl)cc2)cn1	45
O=C(Nc1ccc(Br)cc1)c1cnc(O)c(Cl)c1	58
COc1ccc(NC(=O)c2cccnc2O)cc1	42
Cc1ccc(NC(=O)c2ccc(Cl)nc2)cc1	25
O=C(Nc1ccc(Cl)cc1Cl)c1cnc(Cl)c(Cl)c1	40
Cc1ccc(C(=O)Nc2ccc(Br)cc2)cn1	35
O=C(Nc1ccc(Cl)cc1Cl)c1cnc(O)c(Cl)c1	72
COc1ccc(NC(=O)c2ccc(O)nc2)cc1	53
O=C(Nc1ccc(F)cc1)c1cccnc1O	64
Cc1ccc(NC(=O)c2cnc(Cl)c(Cl)c2)cc1	37
O=C(Nc1cc(Cl)cc(Cl)c1)c1cnc(O)c(Cl)c1	63
COc1ccc(NC(=O)c2cnc(O)c(Cl)c2)cc1	64
COc1ccc(NC(=O)c2cncc(Br)c2)cc1	0
O=C(Nc1ccc(F)cc1)c1ccc(O)nc1	78
Cc1ccc(NC(=O)c2cccnc2O)cc1	28
O=C(Nc1cc(Cl)cc(Cl)c1)c1cnc(Cl)c(Cl)c1	34
O=C(Nc1ccc(F)cc1)c1cnc(O)c(Cl)c1	90
O=C(Nc1ccc(Cl)cc1)c1cccnc1O	60
O=C(Nc1ccc(Cl)cc1)c1cnc(Cl)c(Cl)c1	42

SMILES	inhibition [%]
O=C(Nc1ccc(F)cc1)c1cnc(Cl)c(Cl)c1	45
O=C(Nc1ccc(Br)cc1)c1cnc(Cl)c(Cl)c1	33
Cc1ccc(NC(=O)c2ccc(C)nc2)cc1	10
Cc1ccc(NC(=O)c2ccc(O)nc2)cc1	40
O=C(Nc1ccc(Br)cc1)c1ccc(O)nc1	64
O=C(Nc1ccc(Br)cc1)c1ccc(Cl)nc1	18
O=C(Nc1ccc(Cl)cc1)c1cncc(Br)c1	13
Cc1ccc(NC(=O)c2cnc(O)c(Cl)c2)cc1	50
O=C(Nc1ccc(F)cc1)c1ccc(Cl)nc1	41
O=C(Nc1ccc(Br)cc1)c1cncc(Br)c1	5
COc1ccc(NC(=O)c2ccc(Cl)nc2)cc1	38
O=C(Nc1cccc(Cl)c1)c1cccnc1O	35
O=C(Nc1ccc(Cl)cc1)c1ccc(Cl)nc1	42
O=C(Nc1ccc(Cl)cc1)c1ccc(O)nc1	75
Cc1ccc(C(=O)Nc2ccc(F)cc2)cn1	59
Cc1ccc(C(=O)Nc2cc(Cl)cc(Cl)c2)cn1	20
COc1ccc(NC(=O)c2ccc(C)nc2)cc1	26
O=C(Nc1ccc(Br)cc1)c1cccnc1O	47
O=C(Nc1ccc(Cl)cc1Cl)c1cncc(Br)c1	19
O=C(Nc1ccc(Cl)cc1)c1cnc(O)c(Cl)c1	84

target: T2, Prostaglandin G/H synthase 1 (Ovis aries, UniProt P05979); assay: Inhibition of ovine COX1 after 5 mins by microplate reader assay
T2 sequence (P05979 whole entry): T1 sequence (whole entry)

SMILES	IC50 [µM]
O=C(Nc1ccc(Br)cc1)c1cnc(O)c(Cl)c1	74
Cc1ccc(NC(=O)c2c[nH]c(=O)c(Cl)c2)cc1	95
O=C(Nc1ccc(Cl)cc1Cl)c1cnc(O)c(Cl)c1	16
COc1ccc(NC(=O)c2c[nH]c(=O)c(Cl)c2)cc1	44
O=C(Nc1cc(Cl)cc(Cl)c1)c1cnc(O)c(Cl)c1	29
O=C(Nc1ccc(F)cc1)c1ccc(O)nc1	3.5
O=C(Nc1ccc(Br)cc1)c1ccc(=O)[nH]c1	30
O=C(Nc1ccc(Cl)cc1)c1cccnc1O	28
O=C(Nc1ccc(Cl)cc1)c1c[nH]c(=O)c(Cl)c1	2.7
COc1ccc(NC(=O)c2ccc(=O)[nH]c2)cc1	86
O=C(Nc1ccc(Cl)cc1)c1ccc(O)nc1	9.2
Cc1ccc(C(=O)Nc2ccc(F)cc2)cn1	70
O=C(Nc1ccc(F)cc1)c1c[nH]c(=O)c(Cl)c1	0.68
O=C(Nc1ccc(F)cc1)c1ccc[nH]c1=O	32
